In brackets after ≈: the same amount, converted by molar mass. Several values for one entry are separate records, joined by “and”; a condition that tells them apart may be missing. Equal values may be shown once. Activity calls are given as the source filed them. The rule behind the calls is not given here.
Tests used:
[1] = system: Staphylococcus aureus; experiment: Inhibition of EtBr efflux in ciprofloxacin-resistant Staphylococcus aureus 1199B overexpressing norA and harboring A116E grlA mutant assessed as reduction in fluorescence intensity at 50 uM measured for 5 mins by microplate reader analysis relative to control; format: functional
[2] = system: Staphylococcus aureus; experiment: Antibacterial activity against ciprofloxacin-resistant Staphylococcus aureus 1199B overexpressing norA and harboring A116E grlA mutant assessed as inhibition of bacterial growth by broth microdilution method; format: functional
[3] = system: Staphylococcus aureus; experiment: Synergistic antibacterial activity against Staphylococcus aureus 1199B overexpressing norA and harboring A116E grlA mutant assessed as four fold minimum potentiating concentration incubated in presence of ciprofloxacin by checkerboard assay; format: functional
[4] = system: Staphylococcus aureus; experiment: Synergistic antibacterial activity against Staphylococcus aureus 1199B overexpressing norA and harboring A116E grlA mutant assessed as eight fold minimum potentiating concentration incubated in presence of ciprofloxacin by checkerboard assay; format: functional
[5] = system: Staphylococcus aureus; experiment: Synergistic antibacterial activity against Staphylococcus aureus 1199B overexpressing norA and harboring A116E grlA mutant assessed as fold reduction in ciprofloxacin MIC at 0.2 to 0.39 ug/ml by checkerboard assay; format: functional; conditions: dose 0.2-0.39 µg/ml
[6] = system: Staphylococcus aureus; experiment: Synergistic antibiofilm activity against Staphylococcus aureus 1199B overexpressing norA and harboring A116E grlA mutant assessed as biofilm eradication by measuring ciprofloxacin MBEC at 3.13 ug/ml incubated for 24 hrs by Calgary biofilm device assay; format: functional; conditions: dose 3.13 µg/ml
[7] = system: Staphylococcus aureus; experiment: Synergistic antibiofilm activity against wild type Staphylococcus aureus 1199 assessed as biofilm eradication by measuring ciprofloxacin MBEC at 3.13 ug/ml incubated for 24 hrs by Calgary biofilm device assay; format: functional; conditions: dose 3.13 µg/ml
[8] = system: Staphylococcus aureus; experiment: Synergistic antibiofilm activity against wild type Staphylococcus aureus 1199 assessed as biofilm eradication by measuring fold reduction in ciprofloxacin MBEC at 3.13 ug/ml incubated for 24 hrs by Calgary biofilm device assay; format: functional; conditions: dose 3.13 µg/ml
[9] = system: Staphylococcus aureus; experiment: Antibacterial activity against ciprofloxacin-susceptible wild type Staphylococcus aureus 1199 assessed as inhibition of bacterial growth by broth microdilution method; format: functional
[10] = system: Staphylococcus aureus; experiment: Antibacterial activity against Staphylococcus aureus K2378 harbouring norA promoting and coding region assessed as inhibition of bacterial growth by broth microdilution method; format: functional
[11] = system: Staphylococcus aureus; experiment: Antibacterial activity against norA deleted Staphylococcus aureus K1902 assessed as inhibition of bacterial growth by broth microdilution method; format: functional
[12] = system: Staphylococcus aureus; experiment: Antibiofilm activity against Staphylococcus aureus 1199B overexpressing norA and harboring A116E grlA mutant assessed as biofilm eradication incubated for 24 hrs by Calgary biofilm device assay; format: functional
[13] = system: Staphylococcus aureus; experiment: Antibiofilm activity against wild type Staphylococcus aureus 1199 assessed as biofilm eradication incubated for 24 hrs by Calgary biofilm device assay; format: functional
[14] = system: Staphylococcus aureus; experiment: Antibiofilm activity against norA deleted Staphylococcus aureus K1902 assessed as biofilm eradication incubated for 24 hrs by Calgary biofilm device assay; format: functional
[15] = system: Staphylococcus aureus; experiment: Synergistic bactericidal activity against Staphylococcus aureus 1199B overexpressing norA and harboring A116E grlA mutant assessed as reduction in bacterial count by measuring log reduction in colony forming count per ml at 6.25 ug/ml incubated for 4 hrs in presence of ciprofloxacin at 0.25 to 1 times MIC by time kill assay; format: functional; conditions: dose 6.25 µg/ml
[16] = Cytotoxicity against human THP-1 cells assessed as cell viability at 3.13 ug/ml incubated for 24 hrs by MTT assay relative to control; format: toxicity, cell-based; conditions: at 3.13 µg/mL, read-out: Activity
[17] = Cytotoxicity against human THP-1 cells assessed as cell viability at 12.5 ug/ml incubated for 24 hrs by MTT assay relative to control; format: toxicity, cell-based; conditions: at 12.5 µg/mL, read-out: Activity
[18] = system: Staphylococcus aureus; experiment: Inhibition of EtBr efflux in ciprofloxacin-resistant Staphylococcus aureus 1199B overexpressing norA and harboring A116E grlA mutant assessed as reduction in fluorescence intensity at 10 uM measured for 5 mins by microplate reader analysis relative to control; format: functional
[19] = system: Staphylococcus aureus; experiment: Synergistic antibacterial activity against ciprofloxacin-resistant Staphylococcus aureus 1199B overexpressing norA and harboring A116E grlA mutant assessed as fold reduction in ciprofloxacin MIC at 6.25 uM by broth microdilution method; format: functional
[20] = system: Staphylococcus aureus; experiment: Synergistic antibacterial activity against Staphylococcus aureus K2378 overexpressing norA assessed as fold reduction in ciprofloxacin MIC at 0.2 to 12.5 ug/ml by checkerboard assay; format: functional; conditions: dose 0.2-12.5 µg/ml
[21] = Cytotoxicity against human A549 cells assessed as cell viability at 12.5 ug/ml incubated for 24 hrs by MTT assay relative to control; format: toxicity, cell-based; conditions: at 12.5 µg/mL, read-out: Activity
[22] = Cytotoxicity against human A549 cells assessed as cell viability at 3.13 ug/ml incubated for 24 hrs by MTT assay relative to control; format: toxicity, cell-based; conditions: at 3.13 µg/mL, read-out: Activity
[23] = Cytotoxicity against human THP-1 cells assessed as cell viability incubated for 24 hrs by MTT assay; format: toxicity, cell-based
[24] = system: Staphylococcus aureus; experiment: Synergistic antibiofilm activity against norA deleted Staphylococcus aureus K1902 assessed as biofilm eradication by measuring ciprofloxacin MBEC at 3.13 ug/ml incubated for 24 hrs by Calgary biofilm device assay; format: functional; conditions: dose 3.13 µg/ml
[25] = system: Staphylococcus aureus; experiment: Synergistic antibiofilm activity against Staphylococcus aureus 1199B overexpressing norA and harboring A116E grlA mutant assessed as biofilm eradication by measuring fold reduction in ciprofloxacin MBEC at 3.13 ug/ml incubated for 24 hrs by Calgary biofilm device assay; format: functional; conditions: dose 3.13 µg/ml
[26] = system: Staphylococcus aureus; experiment: Synergistic bactericidal activity against Staphylococcus aureus 1199B overexpressing norA and harboring A116E grlA mutant assessed as reduction in bacterial count at 6.25 ug/ml incubated for 6 hrs in presence of ciprofloxacin at MIC by time kill assay; format: functional, organism-based; conditions: dose 6.25 µg/ml
[27] = system: Staphylococcus aureus; experiment: Potentiation of ciprofloxacin-induced antibacterial activity against Staphylococcus aureus 1199B overexpressing norA and harboring A116E grlA mutant assessed as post-antibiotic effect by measuring log reduction in colony forming unit per ml at 6.25 ug/ml preincubated for 1 hr followed by compound washout and measured after 5 hrs; format: functional; conditions: dose 6.25 µg/ml
[28] = system: Staphylococcus aureus; experiment: Potentiation of ciprofloxacin-induced antibacterial activity against Staphylococcus aureus 1199B overexpressing norA and harboring A116E grlA mutant assessed as time for post-antibiotic effect at 6.25 ug/ml preincubated for 1 hr followed by compound washout and measured after 5 hrs; format: functional; conditions: dose 6.25 µg/ml
[29] = system: Staphylococcus aureus; experiment: Synergistic bactericidal activity against Staphylococcus aureus 1199B overexpressing norA and harboring A116E grlA mutant assessed as reduction in bacterial count by measuring log reduction in colony forming count per ml at 6.25 ug/ml incubated for 6 hrs in presence of ciprofloxacin at 0.25 to 1 times MIC by time kill assay; format: functional; conditions: dose 6.25 µg/ml
[30] = system: Staphylococcus aureus; experiment: Synergistic antibacterial activity against Staphylococcus aureus 1199B overexpressing norA and harboring A116E grlA mutant assessed as sixteen fold minimum potentiating concentration incubated in presence of ciprofloxacin by checkerboard assay; format: functional
[31] = system: Staphylococcus aureus; experiment: Synergistic antibacterial activity against wild type Staphylococcus aureus 1199 assessed as fold reduction in ciprofloxacin MIC at >=3.13 ug/ml by checkerboard assay; format: functional; conditions: dose >= 3.13 µg/ml
[32] = Selectivity index, ratio of CC50 for cytotoxicity against human THP-1 cells to MPC for synergistic antibacterial activity against Staphylococcus aureus 1199B overexpressing norA and harboring A116E grlA mutant assessed as four fold minimum potentiating concentration; format: toxicity, cell-based

| Compound | inhibition [1] | MIC [2] | MPC [3] | MPC [4] | MBEC [6] | MBEC [7] | fold change (FC) [8] | MIC [9] | MIC [10] | MIC [11] | log(activity) [15] | viability at 24 h, 3.13 ug/ml [16] | viability at 24 h, 12.5 ug/ml [17] | inhibition [18] | fold change (FC) [19] | fold change (FC) [20] | viability at 24 h, 12.5 ug/ml [21] | viability at 24 h, 3.13 ug/ml [22] | CC50 at 24 h [23] | MBEC [24] | other results |
| --- | --- | --- | --- | --- | --- | --- | --- | --- | --- | --- | --- | --- | --- | --- | --- | --- | --- | --- | --- | --- | --- |
| CCCOc1ccc(-c2cc(OCCN3CCCCC3)c3cc(OC)ccc3n2)cc1 | 97.6% | 238 µM | 0.78 µg/mL | 1.56 µg/mL | 2.5 µg/mL | 0.07 µg/mL | 286 | – | – | – | – | – | – | – | – | – | – | – | – | – | fold change (FC) [5]: 2 |
| O=C(O)c1cn(C2CC2)c2cc(N3CCNCC3)c(F)cc2c1=O [CIPROFLOXACIN] | – | 10 µg/mL | – | – | – | – | – | 0.08 µg/mL (≈ 0.241 µM) | 0.63 µg/mL (≈ 1.9 µM) | 0.15 µg/mL (≈ 0.453 µM) | – | – | – | – | – | – | – | – | – | – | MBEC [12]: 640 µg/mL; MBEC [13]: 20 µg/mL; MBEC [14]: 40 µg/mL |
| CCCOc1ccc(-c2cc(OCCN3CCCCC3)c3cc(OC(F)F)ccc3n2)cc1 | 80.2% | > 50 µg/mL and > 548 µM | 0.39 µg/mL | 0.78 µg/mL | 0.63 µg/mL | 0.07 µg/mL | 286 | > 50 µg/mL | 25 µg/mL (≈ 54.8 µM) | 25 µg/mL (≈ 54.8 µM) | 3 | 67.7% | 9.4% | 85% | >=8 | 4 | 100% | 100% | > 3.13 µg/mL | 40 µg/mL | fold change (FC) [25]: 512; Activity [26]: Active; log(activity) [27]: 1; Time [28]: 1.2 h |
| CCCOc1ccc(-c2cc(OCCN(CC)CC)c3cc(Oc4ccccc4)ccc3n2)cc1 | 80.9% | > 50 µg/mL and > 531 µM | – | 1.56 µg/mL | 1.25 µg/mL | 0.07 µg/mL | 286 | > 50 µg/mL | 25 µg/mL (≈ 53.1 µM) | 25 µg/mL (≈ 53.1 µM) | 3 | 77.3% | 8.2% | 76.1% | >=8 | 4 | 84.8% | 80.1% | > 3.13 µg/mL | 40 µg/mL | fold change (FC) [25]: 512; log(activity) [29]: 2; log(activity) [27]: 1; Time [28]: 1.2 h |
| CCCOc1ccc(-c2cc(OCCN3CCCCC3)c3cc(Nc4ccccc4)ccc3n2)cc1 | 84.2% | > 50 µg/mL and > 519 µM | 0.39 µg/mL | – | – | – | – | > 50 µg/mL | – | – | – | – | – | 50.1% | 8 | – | – | – | – | – | MPC [30]: 0.78 µg/mL; fold change (FC) [31]: 4 |
| CCCOc1ccc(-c2cc(OCCN3CCCCCC3)c3cc(OCCC)ccc3n2)cc1 | 82.3% | > 50 µg/mL and > 540 µM | 0.2 µg/mL | – | 2.5 µg/mL | 0.07 µg/mL | – | > 50 µg/mL | > 50 µg/mL | > 50 µg/mL | – | 70.3% | 38.4% | 78.8% | 8 | 4 | 84.5% | 100% | > 3.13 µg/mL | – | selectivity ratio [32]: > 15 |

— ChEMBL document CHEMBL5108024, “New C-6 functionalized quinoline NorA inhibitors strongly synergize with ciprofloxacin against planktonic and biofilm growing resistant Staphylococcus aureus strains” (Eur J Med Chem, 2022)
